Source: patent US12441730B2, “PRMT5 inhibitors” (Merck Sharp & Dohme LLC, priority 2019, dated 2025)
Like-named read-outs stand apart in the source and are kept apart here.

How the values were obtained:
[1] = test system: symmetric dimethylation of arginine (SDMA) of PRMT5 substrates in MCF-7 cells; experiment: PRMT5 Cell Target Engagement (TE) Assay; format: cell-based; details: 3 days treatment, SDMA high content imaging
Source text: PRMT5 Cell Target Engagement (TE) Assay
The PRMT5 TE assay is a biomarker assay for identifying compounds that inhibit symmetric dimethylation of arginine (SDMA) of PRMT5 substrates. The following substrates have been reported for PRMT5: histone H2A and H4 R3, Histone H3 R2, Histone H3 R8, spliceosome Sm proteins, ribosomal protein RPS10, p53, FEN1, nucleoplasmin, nucleolin, EGFR and EBNA. The assay focuses on detecting symmetrically dimethylated nuclear proteins using high content imaging technology. Detection of the expression of symmetrically dimethylated nuclear proteins is through a mixture of primary rabbit monoclonal antibodies to SDMA (CST 13222), which in turn recognized by an Alexafluor 488 dye-conjugated anti-rabbit IgG secondary antibody. The IN Cell Analyzer 2200 or Opera-Phenix measures nuclear Alexafluor 488 fluorescent dye intensity that is directly related to the level of expression of symmetrically dimethylated nuclear proteins at the single cell level. Nuclear AF488 dye intensities are compared to the mean value for DMSO treated cells (MIN) to report percent of inhibition for each compound-treated well.
In this assay, the cell potency (EC50) of each compound was determined from a ten point (1:3 serial dilution; top compound concentration of 10000 nM) titration curve using the following outlined procedure. Each well of a BD falcon collagen coated black/clear bottom 384-well plate was seeded with 4000 MCF-7 cells in 30 μl media and allowed to attach for 5 h. Media is ATCC-formulated Eagle's Minimum Essential Medium, Catalog No. 30-2003. To make the complete growth medium, the following components were added to the base medium: 0.01 mg/mL human recombinant insulin; fetal bovine serum to a final concentration of 10%. Additional 30 μl of media containing 2× compounds were added to each well. Cells were treated for 3 days in 37° C. CO2 incubator. On day 3, cells were fixed with Cytofix, permeabilized with 0.4% Triton-X-100/Cytofix, and washed with D-PBS without Ca/Mg. Cells were blocked with Licor Odessey blocking reagent for 1 h at room temperature, followed by incubation with anti-SDMA (1:1000) antibody at 4° C. overnight. 1° antibody was removed, followed by three washings with DPBS without Ca/Mg and 0.05% Tween20. Hoechst (5 μg/mL), Cell Mask deep stain (1:2000) and Alexa488-conjugated goat anti-rabbit IgG (2 μg/mL) was added for 1 h at room temperature. A final washing step (three washes) was performed before sealing plate for imaging on In Cell Analyzer 2200 or Opera-Phenix. Images from analyzer were uploaded to Columbus (at WP or BOS) for image analysis. IC50 values were determined by 4 parameters robust fit of percent fluorescence units vs. (Log10) compound concentrations.

[2] = molecular target: T1, Full-length (FL)-PRMT5-MEP50 enzyme complex (Homo sapiens, UniProt O14744); experiment: PRMT5-MEP50 Enzyme Methylation Assay (Version A); format: biochemical
T1 construct: Full-length (FL)-PRMT5-MEP50 enzyme complex (recombinant proteins from baculovirus-transfected Sf21 cells: FL-PRMT5; MW=73837 kDa and FL-MEP50; MW=38614); made in house; host or cells: baculovirus-transfected Sf21 cells
T1 sequence (O14744 whole entry): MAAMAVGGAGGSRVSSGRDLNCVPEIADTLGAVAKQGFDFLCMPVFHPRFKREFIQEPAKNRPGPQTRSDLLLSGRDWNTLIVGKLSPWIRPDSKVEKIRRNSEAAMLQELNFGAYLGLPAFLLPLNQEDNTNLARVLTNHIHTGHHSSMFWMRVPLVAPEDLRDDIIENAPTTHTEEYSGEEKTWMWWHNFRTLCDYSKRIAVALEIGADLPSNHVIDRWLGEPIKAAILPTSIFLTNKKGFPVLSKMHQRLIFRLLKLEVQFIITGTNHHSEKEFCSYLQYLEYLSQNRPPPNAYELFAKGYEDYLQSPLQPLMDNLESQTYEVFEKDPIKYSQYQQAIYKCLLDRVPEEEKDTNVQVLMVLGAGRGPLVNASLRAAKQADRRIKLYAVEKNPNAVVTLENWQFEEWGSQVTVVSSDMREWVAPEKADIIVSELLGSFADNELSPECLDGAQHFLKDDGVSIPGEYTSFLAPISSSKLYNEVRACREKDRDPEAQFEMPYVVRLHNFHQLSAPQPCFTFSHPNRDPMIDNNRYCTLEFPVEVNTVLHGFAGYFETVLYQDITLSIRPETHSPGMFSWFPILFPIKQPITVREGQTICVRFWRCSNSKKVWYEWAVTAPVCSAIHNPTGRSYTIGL
T1 sequence (Q9BQA1 whole entry partner): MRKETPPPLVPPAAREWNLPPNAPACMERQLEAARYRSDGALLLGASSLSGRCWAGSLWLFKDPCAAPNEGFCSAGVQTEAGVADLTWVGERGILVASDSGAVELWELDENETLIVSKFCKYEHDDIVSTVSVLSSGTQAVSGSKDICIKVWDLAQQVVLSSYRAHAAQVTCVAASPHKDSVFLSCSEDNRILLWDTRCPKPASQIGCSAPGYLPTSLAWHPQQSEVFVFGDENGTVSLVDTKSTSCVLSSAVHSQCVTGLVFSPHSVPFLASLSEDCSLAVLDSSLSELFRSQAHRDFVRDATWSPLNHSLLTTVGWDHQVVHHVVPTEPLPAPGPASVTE
Method: PRMT5-MEP50 Enzyme Methylation Assay (Version A)
PRMT5-MEP50 biochemical assay is a direct measurement of the methylation activity of the enzyme complex on a short peptide substrate derived from the N-terminus of H4 histone. Methylation experiment was performed with recombinant PRMT5-MEP50 protein complex. The assessment of inhibitory effect of small molecules was measured by the effectiveness of the compounds to inhibit this reaction (EC50).
In this assay, the potency (EC50) of each compound was determined from a twenty-point (1:2 serial dilution; top compound concentration of 100000 nM) titration curve using the following outlined procedure. To each well of a white ProxiPlus 384 well-plate, 100 nL of compound (1% DMSO in final assay volume of 10 μL) was dispensed, followed by the addition of 8 μL of 1× assay buffer (50 mM Bicine pH 8.0, 1 mM DTT, 0.004% Tween20, 0.01% BSA) containing 1.25 nM of Full-length (FL)-PRMT5-MEP50 enzyme complex (recombinant proteins from baculovirus-transfected Sf21 cells: FL-PRMT5; MW=[…] and FL-MEP50; MW=38614) and 1 μL of 150 μM S-(5′-Adenosyl)-L-Methionine Chloride (SAM). A plate were sealed and placed in a 37° C. humidified chamber for a 60 minutes pre-incubation with compound. Subsequently, each reaction was initiated by the addition of 1 μL 1× assay buffer containing 750 nM biotinylated H4R3(Me1) peptide. The final reaction in each well of 10 μL consists of 1.0 nM PRMT5-MEP50, 75 nM biotinylated-peptide, and 15 μM SAM. Methylation reactions were allowed to proceed for 150 minutes in a sealed plate at 37° C. Reactions were immediately quenched by the addition of 1 μL of 5% formic acid. A plate was then frozen and shipped to SAMDI™ Tech Inc. to determine the percent conversion from H4R3(Me1) to H4R3(Me2). Dose-response curves were generated by plotting percent effect (% product conversion; Y-axis) vs. Log 10 compound concentrations (X-axis). EC50 values were determined by non-linear regression according to models for either sigmoidal (4 parameters) or biphasic (7 parameters) dose-response curves.

[3] = second value of 7 parameter biphasic fit, read-out: Enzyme Methylation Assay Version A (EC50 2)
[4] = single EC50 = 4 parameter single site sigmoidal fit, EC50 1 = first value of 7 parameter biphasic fit, read-out: Enzyme Methylation Assay Version A (EC50 or EC50 1)

For O=C(c1cc2oc3ccccc3c2cc1O)N1CC[C@]2(Cc3ccccc3CN2)[C@H](O)C1 [Example 182, ((3R,3′R)-3′-hydroxy-1,4-dihydro-2H-spiro[isoquinoline-3,4′-piperidin]-1′-yl)(2-hydroxydibenzo[b,d]furan-3-yl)methanone], the EC50 ([1]; Homo sapiens, MCF7, 72 h) was 155 nM, the EC50 [2, 3] was 1350 nM and the EC50 [2, 4] was 4.57 nM.

O=C(c1cn2cc(Br)ccc2n1)N1CC[C@]2(Cc3ccccc3CN2)[C@H](O)C1 [Example 1, (6-bromoimidazo[1,2-a]pyridin-2-yl)((3R,3′R)-3′-hydroxy-1,4-dihydro-2H-spiro[isoquinoline-3,4′-piperidin]-1′-yl)methanone] was tested, and the EC50 ([1]; Homo sapiens, MCF7, 72 h) was 2.92 nM, the EC50 [2, 3] was 75.3 nM and the EC50 [2, 4] was 0.501 nM.

Work on O=C(c1cnc2ncc(Cl)cn12)N1CC[C@]2(Cc3ccccc3CN2)[C@H](O)C1 [Example 56, (6-chloroimidazo[1,2-a]pyrimidin-3-yl)[(3R,3′R)-3′-hydroxy-1,4-dihydro-1′H,2H-spiro[isoquinoline-3,4′-piperidin]-1′-yl]methanone] yielded an EC50 ([1]; Homo sapiens, MCF7, 72 h) of 82.1 nM, an EC50 [2, 3] of 10000 nM and an EC50 [2, 4] of 12.4 nM.

O=C(c1cn2cc(C3CC3(F)F)cnc2n1)N1CC[C@]2(Cc3ccccc3CN2)[C@H](O)C1 (single isomer, unassigned) [Example 77] showed an EC50 [1] of 23.8 nM, an EC50 [2, 3] of 108 nM and an EC50 [2, 4] of 1.46 nM.

In the case of O=C(c1cn2cc(Cl)cc(Cl)c2n1)N1CC[C@]2(Cc3ccccc3CN2)[C@H](O)C1 [Example 214, (6,8-dichloroimidazo[1,2-a]pyridin-2-yl)[(3R,3′R)-3′-hydroxy-1,4-dihydro-1′H,2H-spiro[isoquinoline-3,4′-piperidin]-1′-yl]methanone], the EC50 ([1]; Homo sapiens, MCF7, 72 h) is reported as 9 nM, the EC50 [2, 3] is reported as 47.9 nM and the EC50 [2, 4] is reported as 1.12 nM.

With COCCN(C)c1cc([C@@H](C)OC)c2nc(C(=O)N3CC[C@]4(Cc5ccccc5CN4)[C@H](O)C3)cn2c1 [Example 229, [(3R,3′R)-3′-hydroxy-1,4-dihydro-1′H,2H-spiro[isoquinoline-3,4′-piperidin]-1′-yl]{8-[(1R)-1-methoxyethyl]-6-[(2-methoxyethyl)(methyl)amino]imidazo[1,2-a]pyridin-2-yl}methanone] the EC50 ([1]; Homo sapiens, MCF7, 72 h) was 22.6 nM, the EC50 [2, 3] was 234 nM and the EC50 [2, 4] was 0.602 nM.

With O=C(c1nccn2nccc12)N1CC[C@]2(Cc3ccccc3CN2)[C@H](O)C1 [Example 185, ((3R,3′R)-3′-hydroxy-1,4-dihydro-2H-spiro[isoquinoline-3,4′-piperidin]-1′-yl)(pyrazolo[1,5-a]pyrazin-4-yl)methanone] the EC50 ([1]; Homo sapiens, MCF7, 72 h) was 1540 nM, the EC50 [2, 3] was 26900 nM and the EC50 [2, 4] was 24 nM.

CC(C)(O)c1cc(Br)cn2cc(C(=O)N3CC[C@]4(Cc5ccccc5CN4)[C@H](O)C3)nc12 [Example 47, (6-bromo-8-(2-hydroxypropan-2-yl)imidazo[1,2-a]pyridin-2-yl)((3R,3’R)-3′-hydroxy-1,4-dihydro-2H-spiro[isoquinoline-3,4′-piperidin]-1′-yl)methanone] gave an EC50 ([1]; Homo sapiens, MCF7, 72 h) of 9.81 nM, an EC50 [2, 3] of 403 nM and an EC50 [2, 4] of 0.421 nM.

Compound CO[C@H](C)c1cccn2cc(C(=O)N3CC[C@]4(Cc5ccccc5CN4)[C@H](O)C3)nc12 [Example 237, [(3R,3′R)-3′-hydroxy-1,4-dihydro-1′H,2H-spiro[isoquinoline-3,4′-piperidin]-1′-yl]{8-[(1R)-1-methoxyethyl]imidazo[1,2-a]pyridin-2-yl}methanone] has an EC50 ([1]; Homo sapiens, MCF7, 72 h) of 258 nM, an EC50 [2, 3] of 1840 nM and an EC50 [2, 4] of 9.13 nM.

CC(C#N)c1ccc2nc(C(=O)N3CC[C@]4(Cc5ccccc5CN4)[C@H](O)C3)cn2c1 (stereo partly drawn) [Example 69, 2-(2-{[(3R,3′R)-3′-hydroxy-1,4-dihydro-1′H,2H-spiro[isoquinoline-3,4′-piperidin]-1′-yl]carbonyl}imidazo[1,2-a]pyridin-6-yl)propanenitrile] showed an EC50 ([1]; Homo sapiens, MCF7, 72 h) of 12.7 nM, an EC50 [2, 3] of 43.6 nM and an EC50 [2, 4] of 0.405 nM.

Compound Cc1ccc(C(=O)N2CC[C@]3(Cc4ccccc4CN3)[C@H](O)C2)c(O)n1 [Example 219, 3-{[(3R,3′R)-3′-hydroxy-1,4-dihydro-1′H,2H-spiro[isoquinoline-3,4′-piperidin]-1′-yl]carbonyl}-6-methyl-2(1H)-pyridinone] has an EC50 ([1]; Homo sapiens, MCF7, 72 h) of 4160 nM, an EC50 [2, 3] of 17400 nM and an EC50 [2, 4] of 204 nM.

In the case of O=C(c1cn2cc(Br)cc(CO)c2n1)N1CC[C@]2(Cc3ccccc3CN2)[C@H](O)C1 [Example 6, (6-bromo-8-(hydroxymethyl)imidazo[1,2-a]pyridin-2-yl)((3R,3’R)-3′-hydroxy-1,4-dihydro-2H-spiro[isoquinoline-3,4′-piperidin]-1′-yl)methanone], the EC50 ([1]; Homo sapiens, MCF7, 72 h) is reported as 3.24 nM, the EC50 [2, 3] is reported as 220 nM and the EC50 [2, 4] is reported as 0.71 nM.

CN1CC(C2CC2)Cn2cc(C(=O)N3CC[C@]4(Cc5ccccc5CN4)[C@H](O)C3)nc21 (single isomer, unassigned) [Example 142] was tested, and the EC50 [1] was 620 nM, the EC50 [2, 3] was 1860 nM and the EC50 [2, 4] was 29.5 nM.

Cc1cn2cc(C(=O)N3CC[C@]4(Cc5ccccc5CN4)[C@H](O)C3)nc2nc1O [Example 131, 2-{[(3R,3′R)-3′-hydroxy-1,4-dihydro-1′H,2H-spiro[isoquinoline-3,4′-piperidin]-1′-yl]carbonyl}-6-methylimidazo[1,2-a]pyrimidin-7(1H)-one] was tested, and the EC50 ([1]; Homo sapiens, MCF7, 72 h) was ≥ 10000 nM, the EC50 [2, 3] was 74100 nM and the EC50 [2, 4] was 70.8 nM.

With Cc1cc2ncc(C(=O)N3CC[C@]4(Cc5ccccc5CN4)[C@H](O)C3)c(C)n2n1 [Example 181, (2,7-dimethylpyrazolo[1,5-a]pyrimidin-6-yl)((3R,3′R)-3′-hydroxy-1,4-dihydro-2H-spiro[isoquinoline-3,4′-piperidin]-1′-yl)methanone] the EC50 ([1]; Homo sapiens, MCF7, 72 h) was 924 nM, the EC50 [2, 3] was 3980 nM and the EC50 [2, 4] was 20.9 nM.

Compound COC(C)c1cc(C)c2nc(C(=O)N3CC[C@]4(Cc5ccccc5CN4)[C@H](O)C3)cn2c1 (single isomer, unassigned) [Example 122] has an EC50 [1] of 5.56 nM, an EC50 [2, 3] of 144 nM and an EC50 [2, 4] of 0.304 nM.

O=C(c1nc2cc(Cl)ccn2n1)N1CC[C@]2(Cc3ccccc3CN2)[C@H](O)C1 [Example 18] gave an EC50 ([1]; Homo sapiens, MCF7, 72 h) of 1010 nM, an EC50 [2, 3] of 57500 nM and an EC50 [2, 4] of 63.1 nM.

With COc1nc2nc(C(=O)N3CC[C@]4(Cc5ccccc5CN4)[C@H](O)C3)cn2cc1C [Example 128, [(3R,3′R)-3′-hydroxy-1,4-dihydro-1′H,2H-spiro[isoquinoline-3,4′-piperidin]-1′-yl](7-methoxy-6-methylimidazo[1,2-a]pyrimidin-2-yl)methanone] the EC50 ([1]; Homo sapiens, MCF7, 72 h) was 195 nM, the EC50 [2, 3] was 2690 nM and the EC50 [2, 4] was 5.33 nM.
